Our source for the IC50 values is patent US9469644B2, “Inhibitors of Bruton's tyrosine kinase” (Hoffmann-La Roche Inc., priority 2013, dated 2016).

For orientation: IC50 means the concentration that gives 50% inhibition. Higher therefore signals a need for much substance.

The target of the test is Bruton's Tyrosine Kinase (BTK), inactivated state (Homo sapiens (Human), UniProt Q06187). The test is described as follows: BTK inhibition TR-FRET competition assay. It counts as binding. As to conditions: TR-FRET competition with Kinase Tracer 178, 18-24 h at 14° C. The procedure: This BTK competition assay measures compound potency (IC50) for the inactivated state of Bruton's Tyrosine Kinase using FRET (Förster/Flouresence Resonance Energy Transfer) technology. The BTK-Eu complex was incubated on ice one hour prior to use at a starting concentration of 50 nM BTK-BioeaseTM: 10 nM Eu-streptavidin (Perkin-Elmer Catalog# AD0062). The assay buffer consisted of 20 mM HEPES (pH 7.15), 0.1 mM DTT, 10 mM MgCl2, 0.5 mg/ml BSA with 3% Kinase Stabilizer (Fremont Biosolutions, Catalog #STB-K02). After 1 h, the reaction mixture from above was diluted 10 fold in assay buffer to make 5 nM BTK: 1 nM Eu-Streptavidin complex (donor fluorophore). 18 μl of a mixture of 0.11 nM BTK-Eu and 0.11 nM Kinase Tracer 178 (Invitrogen, Catalog #PV5593,) with BTK-Eu alone as no negative control, was then dispensed into 384-well flat bottom plates (Greiner, 784076). Compounds to be tested in assay were prepared as 10× concentrations and serial dilution in half-log increments was performed in DMSO so as to generate 10 point curves. To initiate the FRET reaction, compounds prepared as 10× stock in DMSO was added to the plates and the plates were incubated 18-24 h at 14° C. After the incubation the plates were read on a BMG Pherastar Fluorescent plate reader (or equivalent) and used to measure the emission energy from the europium donor fluorophore (620 nm emission) and the FRET (665 nm emission). The negative control well values were averaged to obtain the mean minimum. The positive “no inhibitor” control wells were averaged to obtain the mean maximum. […] The mean IC50 and standard deviation will be derived from duplicate curves (singlet inhibition curves from two independent dilutions) using Microsoft Excel.
Chain of Bruton's Tyrosine Kinase (BTK), inactivated state (Q06187 whole entry): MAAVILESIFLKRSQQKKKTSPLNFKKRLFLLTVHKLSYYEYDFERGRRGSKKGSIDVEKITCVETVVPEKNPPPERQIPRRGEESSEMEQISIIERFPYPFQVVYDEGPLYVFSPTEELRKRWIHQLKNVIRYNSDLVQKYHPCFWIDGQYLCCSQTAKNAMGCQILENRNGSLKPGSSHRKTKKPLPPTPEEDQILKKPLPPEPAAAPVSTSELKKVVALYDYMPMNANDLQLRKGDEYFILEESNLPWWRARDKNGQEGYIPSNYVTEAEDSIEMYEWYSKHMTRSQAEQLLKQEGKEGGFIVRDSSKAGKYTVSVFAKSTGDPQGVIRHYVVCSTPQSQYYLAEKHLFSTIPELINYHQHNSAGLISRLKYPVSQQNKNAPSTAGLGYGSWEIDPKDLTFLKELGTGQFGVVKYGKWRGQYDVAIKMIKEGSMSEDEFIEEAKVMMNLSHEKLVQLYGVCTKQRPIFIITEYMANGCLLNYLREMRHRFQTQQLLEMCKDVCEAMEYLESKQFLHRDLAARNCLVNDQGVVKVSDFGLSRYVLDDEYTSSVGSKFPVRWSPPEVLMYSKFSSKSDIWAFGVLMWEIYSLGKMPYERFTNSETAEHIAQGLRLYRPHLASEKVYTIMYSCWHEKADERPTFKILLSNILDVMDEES
(In TR-FRET formats the signal depends on donor and acceptor labels being close together.)
As to `CC(C)(C)OC(=O)NC1CCCC(C(=O)O)C1` (stereo not shown) [Compound 7], the IC50 was determined as 109 nM.
As for `Cn1cc(Nc2nc(NC3CCCC(NC(=O)c4ccc(C(C)(C)C)cc4)C3)c3nc[nH]c3n2)cn1` (stereo not shown) [Compound 5, 4-tert-butyl-N-{3-[2-(1-methyl-1H-pyrazol-4-ylamino)-9H-purin-6-ylamino]-cyclohexyl}-benzamide], the figure is 56.9 nM; as for `CC(C)(C)c1ccc(C(=O)NC2CCCC(Nc3ncnc4[nH]cnc34)C2)cc1` (stereo not shown) [Compound 1, 4-tert-Butyl-N-[3-(7H-purin-6-ylamino)-cyclohexyl]-benzamide], 9570 nM.
As for `O=C(NC1CCCC(Nc2ncnc3[nH]cnc23)C1)c1ccccc1` (stereo not shown) [Compound 6], the figure is 45.3 nM; as for `CC1CCCC(Nc2nc(Nc3cnn(C)c3)nc3[nH]cnc23)C1` (stereo not shown) [Compound 4, N*6*-(3-Methyl-cyclohexyl)-N*2*-(1-methyl-1H-pyrazol-4-yl)-9H-purine-2,6-diamine], 40600 nM.
Regarding `O=C(NCc1cccc(Cl)c1)C1CCCC(Nc2ncnc3[nH]cnc23)C1` (stereo not shown) [Compound 2, 3-(9H-Purin-6-ylamino)-cyclohexanecarboxylic acid 3-chloro-benzylamide], the concentration for half-maximal inhibition (IC50) is 100000 nM.
As to `Cn1cc(Nc2nc(NC3CCCCC3)c3nc[nH]c3n2)cn1` [Compound 3, N*6*-Cyclohexyl-N*2*-(1-methyl-1H-pyrazol-4-yl)-9H-purine-2,6-diamine], the 50% inhibitory concentration (IC50) stood at 2820 nM.
